# Literature values in US20170224936A1, “Nasal treatment delivery device with carbon dioxide and saline, and methods” (priority 2016, published 2017).
# What was measured:
# [1] = carbon dioxide gas treatments per Capnia prior art to Rasor et al
structure (smiles),measurement,setting,value
"O=C=O [CO(2), carbon dioxide]",sneezes,"20-second exposure, compared with no treatment, p=0.05",significant reduction
same,histamine levels in ipsilateral nasal secretions,after pretreatment with CO(2),did not increase
same,ipsilateral secretion weights,compared with no treatment,numerically reduced
same,bilateral runny nose symptoms,"compared with no treatment, p=0.01",significant reduction
same,contralateral secretion weights,"compared with no treatment, p=0.04",significant reduction
same,sensation during exposure,during exposure to CO(2),transient burning sensation
same,severe stinging,[1],had occurred
